Measurements as given in patent publication US11040056B2, “Benzimidazoles that enhance the activity of oligonucleotides” (The University of North Carolina at Chapel Hill, priority 2018, dated 2021).

How the values were obtained:
HeLa Luc 705 cells = experiment: Confocal microscopy of endomembrane permeability and oligonucleotide localization; type: cell-based; details: 2 h
Protocol: FIG. 5A-5B. Effect on endomembrane permeability. FIG. 5A: HeLa Luc 705 cells (50 000) were seeded into glass-bottom dishes and incubated at 37° C. for attachment. Alexa 488-Dextran 10K (200 μg/mL) or TAMRA SSO 623 (2.5 μM) were added into the medium and the cells incubated for 24 h. Cells were washed with PBS and then placed back in the medium and treated with UNC2383 for 2 h or maintained as controls. Cells were rinsed after drug treatment. Live cells were imaged with an Olympus FV1200 or a Zeiss LSM710 confocal microscope. For the studies with Alexa 488 Dextran, the controls are shown in image panels a and b while cells treated with 10 μM UNC2383 are in image panels c and d. […] Images e and f are composites of TAMRA, Hoechst, and DIC images, and the pink coloration in f indicates overlap of the TAMRA and Hoechst fluorescence. Images are typical of three independent assays. Intensity settings were identical for fluorescence images with or without UNC2383. FIG. 5B quantitates the TAMRA fluorescence in the nucleus for controls versus cells treated with 5 μM UNC2383, as measured using Fiji software, with Hoechst stain used to delineate the nucleus (N=12).
FIG. 6. Confocal images of compound effects on nuclear distribution of a fluorescent oligonucleotide. […] Nuclei lacking fluorescence are indicated with gray arrows. […]
FIG. 7A-7B. […] Composite images showing TAMRA fluorescence, GFP, and DIC are provided. […]
Effects of UNC2383 on endosome stability were monitored in cell culture models as previously described. […] Live cells were imaged by fluorescence confocal microscopy with or without treatment with UNC2383 or its analogs. […] Co-localization of TAMRA labeled SSO 623 with marker proteins was quantitated using Fiji (ImageJ) software and expressed as a Manders' Correlation Coefficient. […] EGFP protein expression was monitored by immunostaining with an anti-EGFP antibody (Abcam) using techniques previously described. (3) EGFP immunostaining was analyzed using a Leica SP2 confocal microscope with acquisition parameters constant throughout the study: images were processed with Adobe Photoshop software. […]

[1] = tested on: EGFP654 mouse tracheal epithelial cells (MTEC); experiment: Splicing correction (EGFP expression) in EGFP654 mouse tracheal epithelial cells; type: cell-based; details: 1 uM SSO PS623 basolateral overnight, 3 uM OEC apical 2 hr
Protocol: FIG. 13. EGFP654 Mouse tracheal cells. Well-differentiated tracheal epithelial cells derived from the EGFP654 mouse were treated basolaterally with 1 uM SSO PS623 (overnight) and apically with 3 uM OEC2383 (2 hr) or vehicle. Confocal microscopy images (xy, xz planes), bar=20 um.
FIG. 15B: P-PMO+OEC mediated splicing correction in EGFP654 MTEC. Well-differentiated cultures of primary tracheal cells (MTEC) derived from the EGFP654 mouse were treated with only one dose of P-PMO“654” (0.5 uM, overnight) followed by vehicle (−) or OEC2383 or OEC7938 (+), (10 uM, 2 hs). Both the SSO and OEC were added in cell medium either into the basolateral (BL, 400 ul) or the apical (AP, 30 ul) sides. MTEC were imaged in face at low mag. with a 10× lens in a fluorescence microscope, after 48 hs and 65 days post-treatment. All wells had the same total cell numbers. Vehicle controls<10 cells/well; n=3, bar=70 um. 1) Basolateral delivery of one treatment of P-PMO and OEC corrected>70% MTEC/well at 48 hs post-treatment. EGFP expression was still evident in large groups of cells after 65 days.
Methods: SSO623 (1 uM) was incubated basolaterally overnight in well-differentiated primary tracheal epithelial cells (MTEC) derived from the EGFP654 mouse (Wang et al, 2017); OEC2383 was administered apically or basolaterally (1-4 uM for 2-3 hs). […]

## O=C(Nc1nc2ccccc2n1CCN1CCCC1)c1cc2cc(Cl)ccc2o1 [UNC2383]
HeLa Luc 705 cells; 5 μM
  relocalization of TAMRA labeled SSO to the nucleus: partial but substantial relocalization
HeLa Luc 705 cells; 5 μM, GFP-Rab7, GFP-LAMP1
  colocalization of TAMRA-SSO with late endosomes and lysosomes (Manders' Correlation Coefficient): substantially reduced
HeLa Luc 705 cells; 10 μM
  release of Alexa 488-Dextran from vesicular entrapment: partial release
[1]
  EGFP expression / enhancing activity in MTEC: notably expressed
